# Laboratory results: paper PMC9656702, “Unveiling a New Selenocyanate as a Multitarget Candidate with Anticancer, Antileishmanial and Antibacterial Potential” (Molecules, 2022)
# Like-named read-outs stand apart in the source and are kept apart here.
# What was measured:
# HT-29 = assay: Antiproliferative MTT assay, HT-29 colon cancer cells; assay type: cell-based, human; conditions: MTT assay, 48 h, mean ± SD, read-out: IC50 HT-29
# Procedure: (§1) The antiproliferative activities of the cinnamyl and benzodioxyl derivatives were assessed against six human cell lines of three different types of cancer (colon, lung, and breast) using the 3-(4,5-dimethylthiazol-2-yl)-2,5-diphenyltetrazolium bromide (MTT) assay at seven concentrations for 48 h. The results are expressed as the IC50 values and are outlined in Table 1.
# (§2) The cell lines were obtained from the American Type Culture Collection (ATCC). All the cancer cell lines (HT-29, HCT-116, H1299, HTB-54, MDA-MB-231 and MCF-7) and the nontumorigenic cells (184B5) were maintained in RPMI 1640 medium (Gibco), supplemented with 10% fetal bovine serum (FBS; Gibco) and 1% antibiotics (10.00 units/mL penicillin and 10.00 mg/mL streptomycin; Gibco). Cells were preserved in tissue culture flasks at 37 °C and 5% CO2. Culture medium was replaced every three days.
# (§3) The cytotoxic effect of each compound was initially tested at seven different concentrations ranging between 0.5 and 100 µM in the cell lines mentioned above. The cells were seeded (1 × 10^4 cells per well) in 96-well plates and incubated at 37 °C and 5% CO2 for 24 h. After attachment, cells were treated with either dimethyl sulfoxide (DMSO) or increasing concentrations of the corresponding selenocompound for 48 h. The effect of the compounds on cell viability was determined by the MTT assay. In brief, 20 µL of MTT (5 mg/mL) was added to each well 2.5 h prior to experiment termination. At the end of the incubation, the medium was removed, and the formazan crystals were dissolved in 50 µL of DMSO. Absorbance was measured at 550 nm on a microplate reader. IC50 values were calculated using OriginPro 8.5.1. software by nonlinear curve fitting. Selectivity indexes were calculated as the ratio of the IC50 values determined for the nonmalignant and the tumoral cells in the breast cell lines (IC50 (184B5)/IC50 (MDA-MB-231) and IC50 (184B5)/IC50 (MCF-7)). Data were obtained from at least three independent experiments performed in triplicates.
# HCT-116 = assay: Antiproliferative MTT assay, HCT-116 colon cancer cells; assay type: cell-based, human; conditions: MTT assay, 48 h, mean ± SD, read-out: IC50 HCT-116
# Procedure: as §1, §2, §3
# HTB-54 = assay: Antiproliferative MTT assay, HTB-54 lung cancer cells; assay type: cell-based, human; conditions: Homo sapiens, HTB-54; MTT assay, 48 h, mean ± SD; read-out: IC50 HTB-54
# Procedure: as §1, §2, §3
# MDA-MB-231 = assay: Antiproliferative MTT assay, MDA-MB-231 breast cancer cells; assay type: cell-based, human; conditions: Homo sapiens, MDA-MB-231; MTT assay, 48 h, mean ± SD; read-out: IC50 MDA-MB-231
# Procedure: as §1, §2, §3
# MCF-7 = assay: Antiproliferative MTT assay, MCF-7 breast cancer cells; assay type: cell-based, human; conditions: MTT assay, 48 h, mean ± SD
# Procedure: as §1, §2, §3
# 184B5 = assay: MTT assay in nonmalignant mammary gland cells 184B5; assay type: cell-based; conditions: nontumorigenic cells, MTT assay, 48 h, mean ± SD
# Procedure: To assess their possible selectivity, the synthesized selenocompounds were then tested in a mammary gland (184B5) nonmalignant cell line, and the selectivity indexes (SI) were determined as the ratio of the IC50 values obtained for the nonmalignant cells and the homolog cancer cells.
# as §2, §3
# [1] = system: Leishmania major promastigotes; assay: Parasite viability MTT assay, L. major promastigotes; assay type: cell-based; conditions: Leishmania major, 48 h, promastigotes, MTT assay, mean ± SD, read-out: IC50 Leishmania major
# Procedure: (§4) The cytotoxic activities of all the derivatives against Leishmania major and Leishmania infantum promastigotes were studied by the MTT assay after exposing the parasites to five different concentrations of each compound for 48 h. Miltefosine and paromomycin, two currently available drugs for the treatment of leishmaniasis, were used as positive controls.
# (§5) L. major (clone VI, MHOM/IL/80/Friendlin) and L. infantum (BCN-150) promastigotes were grown in continuous stirred M199 1X medium (Sigma, St Louis, MO, USA) at 26 °C supplemented with 25 mM HEPES (pH 7.2), 10% heat-inactivated FBS (Gibco, Gaithersburg, MD, USA), 0.1 mM adenine, 0.0005% (w/v) hemin, 0.0001% (w/v) biotin, 100 UI/mL penicillin and […] streptomycin (Gibco, Gaithersburg, MD, USA). Media were changed before each experiment to achieve exponential growth.
# (§6) The antileishmanial activity was assessed by the MTT assay as previously described. Briefly, 3 × 10^6 promastigotes of both Leishmania strains were placed into a 96-well plate with supplemented M199 1X medium during their logarithmic growth phase. The parasites were treated with five increasing concentrations of the compounds ranging between 0.1 and 1000 µM at 26 °C for 48 h. At the termination point, 20 µL of MTT (5 mg/mL) was added and further incubated for 4 h. The resultant formazan crystals formed were dissolved in 80 µL of DMSO and the absorbance was measured at 550 nm on a microplate reader. IC50 values were calculated using OriginPro 8.5.1. software by nonlinear curve fitting. Miltefosine and paromomycin were used as reference drugs. Data were obtained from at least three independent experiments performed in triplicates.
# [2] = system: Leishmania infantum promastigotes; assay: Parasite viability MTT assay, L. infantum promastigotes; assay type: cell-based; conditions: Leishmania infantum, 48 h, promastigotes, MTT assay, mean ± SD, read-out: IC50 Leishmania infantum
# Procedure: as §4, §5, §6
# E. coli = assay: MIC and MBC assay, E. coli; assay type: cell-based, Escherichia coli; conditions: Escherichia coli; Gram-negative, 24 h at 37 °C
# Procedure: (§7) The minimum inhibitory concentration (MIC) and the minimum bactericidal concentration (MBC) values of the selenocompounds were determined in a panel of six bacterial strains as a first approach to assess their antibacterial activity. Thus, the synthesized derivatives were tested against the Gram-negative bacteria Escherichia coli (E. coli), Klebsiella pneumoniae (K. pneumoniae) and Citrobacter freundii (C. freundii); and the Gram-positive bacteria Staphylococcus aureus (S. aureus), Streptococcus faecalis (S. faecalis), and Staphylococcus epidermidis (S. epidermidis). […]
# (§8) All the selenocompounds were screened for their in vitro inhibitory activity against three Gram-negative (E. coli, K. pneumoniae and C. freundii) and three Gram-positive (S. aureus, S. faecalis and S. epidermidis) bacteria. Bacterial strains were kindly provided by the Department of Microbiology and Parasitology of the University of Navarra. The bacterial cells were grown in tryptic soy agar (TSA) plates and maintained at 4 °C.
# (§9) The compounds were firstly dissolved in DMSO and serially diluted in a 96-well plate in tryptic soy broth (TSB) with eleven concentrations ranging from 400 µg/mL to 0.4 µg/mL with a final volume of 100 µL. Subsequently, 100 µL of a diluted suspension of bacterial cells with an optical density of 0.125 measured at 600 nm in TSB (inoculum of approximately 10^5 CFU/mL) was added to each well and incubated at 37 °C for 24 h. After the incubation period, each well was analyzed for the presence or absence of visual growth of bacterial cells. The lowest concentration of the test compound at which no visible growth occurred was determined as the MIC values. After incubation, 10 µL of the bacterial suspension from each well that presented antibacterial activity was added to divided TSA plates and incubated at 37 °C overnight.
# K. pneumoniae = assay: MIC and MBC assay, K. pneumoniae; assay type: cell-based, Klebsiella pneumoniae; conditions: Klebsiella pneumoniae; Gram-negative, 24 h at 37 °C; read-out: MIC K. pneumoniae
# Procedure: as §7, §8, §9
# C. freundii = assay: MIC and MBC assay, C. freundii; assay type: cell-based, Citrobacter freundii; conditions: Citrobacter freundii; Gram-negative, 24 h at 37 °C; read-out: MIC C. freundii
# Procedure: as §7, §8, §9
# S. aureus = assay: MIC and MBC assay, S. aureus; assay type: cell-based, Staphylococcus aureus; conditions: Staphylococcus aureus; Gram-positive, 24 h at 37 °C
# Procedure: as §7, §8, §9
# S. faecalis = assay: MIC and MBC assay, S. faecalis; assay type: cell-based, Streptococcus faecalis; conditions: Enterococcus faecalis; Gram-positive, 24 h at 37 °C; read-out: MIC S. faecalis
# Procedure: as §7, §8, §9
# S. epidermidis = assay: MIC and MBC assay, S. epidermidis; assay type: cell-based, Staphylococcus epidermidis; conditions: Staphylococcus epidermidis; Gram-positive, 24 h at 37 °C; read-out: MIC S. epidermidis
# Procedure: as §7, §8, §9
Structure (SMILES),"IC50 (HT-29; Homo sapiens, HT-29, 48 h) [µM]",IC50 (HT-29) [µM],"IC50 (HCT-116; Homo sapiens, HCT-116, 48 h) [µM]",IC50 (HCT-116) [µM],IC50 (HTB-54) [µM],IC50 (MDA-MB-231) [µM],"IC50 (MCF-7; Homo sapiens, MCF7, read-out: IC50 MCF-7) [µM]",IC50 MCF-7 (MCF-7),"IC50 (184B5; Homo sapiens, 184B5, 48 h, read-out: IC50 184B5) [µM]",IC50 184B5 (184B5),IC50 [1] [µM],IC50 [2] [µM],MIC (E. coli) [µg/mL],MIC (K. pneumoniae) [µg/mL],MIC (C. freundii) [µg/mL],MIC (S. aureus) [µg/mL],MIC (S. faecalis) [µg/mL],MIC (S. epidermidis) [µg/mL],melting point [°C]
"c1cc2c(cc1C[Se][Se]Cc1ccc3c(c1)OCO3)OCO2 [Compound 2b, 1,2-Bis(benzo[d][1,3]dioxol-5-ylmethyl)diselenide]",< 12,10.1 ± 1.2,~11,11.3 ± 1,41.6 ± 9.4,46.6 ± 12.1,> 100,completely inactive,> 100,did not display any activity,49.4 ± 16.7,56.1 ± 8.1,> 200,> 200,> 200,> 200,> 200,> 200,78 to 80
"NC[C@@H]1O[C@H](O[C@H]2[C@@H](O)[C@H](O[C@@H]3[C@@H](O)[C@H](N)C[C@H](N)[C@H]3O[C@H]3O[C@H](CO)[C@@H](O)[C@H](O)[C@H]3N)O[C@@H]2CO)[C@H](N)[C@@H](O)[C@@H]1O [Paromomycin, reference compound]",–,–,–,–,–,–,–,–,–,–,71 ± 3.3,18 ± 1,–,–,–,–,–,–,–
"CCCCCCCCCCCCCCCCOP(=O)([O-])OCC[N+](C)(C)C [Miltefosine, reference compound]",–,–,–,–,–,–,–,–,–,–,66.6 ± 11.6,–,–,–,–,–,–,–,–
